Experimental data reported in the supplement of paper PMC6045584.
± gives the standard deviation of the averaged measurements.

How the values were obtained:
[1] = compound: T1, Nc1nc2[nH]cnc2c(=S)[nH]1 [TIOGUANINE]; test: area under dose-response curve of surviving fraction (unscaled, Aref=0) (surviving fraction x log10(nM)); higher = more resistant; conditions: exposure time: 5 days; dose range 0.5-1000 nM
Method in brief: (§1)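 Tumour cell lines in 384-well plates were exposed for five days to eight inhibitor concentrations from 0.5 to 1000 nM. Viability was read by CellTiter-Glo luminescence, normalised to DMSO-only wells, in three screens per line. Dose-response survival curves were fitted to surviving fractions by 3-parameter logistic regression in the drc R package. Area under the curve is the unscaled activity area (Aref = 0) over log10 dose.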

[2] = compound: T2, CN(C)C/C=C/C(=O)Nc1cc2c(Nc3ccc(F)c(Cl)c3)ncnc2cc1O[C@H]1CCOC1 [AFATINIB]; test: as above; conditions: exposure time: 5 days; dose range 0.5-1000 nM
Method in brief: as §1

[3] = compound: T3, CNC(=O)c1ccc(N2C(=S)N(c3ccc(C#N)c(C(F)(F)F)c3)C(=O)C2(C)C)cc1F [MDV3100]; test: as above; conditions: exposure time: 5 days; dose range 0.5-1000 nM
Method in brief: as §1

[4] = compound: T4, C=CC(=O)Nc1cc2c(Nc3ccc(F)c(Cl)c3)ncnc2cc1OCCCN1CCOCC1 [CANERTINIB]; test: as above; conditions: exposure time: 5 days; dose range 0.5-1000 nM
Method in brief: as §1

[5] = compound: T5, CCCCCCCCCCCCCCCC(=O)Nc1ccn([C@@H]2O[C@H](CO)[C@@H](O)[C@@H]2C#N)c(=O)n1 [SAPACITABINE]; test: as above; conditions: exposure time: 5 days; dose range 0.5-1000 nM
Method in brief: as §1

[6] = compound: T6, CC1(C)CC(=O)c2c(C(F)(F)F)nn(-c3ccc(C(N)=O)c(N[C@H]4CC[C@H](OC(=O)CN)CC4)c3)c2C1 [SNX-5422]; test: as above; conditions: exposure time: 5 days; dose range 0.5-1000 nM
Method in brief: as §1

[7] = compound: T7, CC[C@@H]1C(=O)N(C)c2cnc(Nc3ccc(C(=O)NC4CCN(C)CC4)cc3OC)nc2N1C1CCCC1 [BI-2536]; test: as above; conditions: exposure time: 5 days; dose range 0.5-1000 nM
Method in brief: as §1

[8] = compound: Cn1cc(C2=Nc3cc(NC(=O)C(N)C4CCCCC4)cc4c3C2=CNNC4=O)cn1; test: as above; conditions: exposure time: 5 days; dose range 0.5-1000 nM
Method in brief: as §1

[9] = compound: T1, TIOGUANINE; test: surviving fraction relative to DMSO-only wells; higher = less growth inhibition; conditions: exposure time: 5 days
Method in brief: (§2)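 Log-phase tumour cells were seeded at 250–500 per well in 384-well plates and, from 24 hours after seeding, exposed continuously for five days to inhibitors at 0.5, 1, 5, 10, 50, 100, 500 and 1000 nM. Surviving fraction is CellTiter-Glo luminescence normalised to the median of DMSO-only wells. Luminescence was measured after 10 minutes at room temperature, and only lines screened three times with replicate Pearson r >0.7 and median Z' >0.3 were kept.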

[10] = compound: T2, AFATINIB; test: as above; conditions: exposure time: 5 days
Method in brief: as §2

[11] = compound: T3, MDV3100; test: as above; conditions: exposure time: 5 days
Method in brief: as §2

[12] = compound: T4, CANERTINIB; test: as above; conditions: exposure time: 5 days
Method in brief: as §2

[13] = compound: T5, SAPACITABINE; test: as above; conditions: exposure time: 5 days
Method in brief: as §2

[14] = compound: T6, SNX-5422; test: as above; conditions: exposure time: 5 days
Method in brief: as §2

[15] = compound: T7, BI-2536; test: as above; conditions: exposure time: 5 days
Method in brief: as §2

[16] = compound: Cn1cc(C2=Nc3cc(NC(=O)C(N)C4CCCCC4)cc4c3C2=CNNC4=O)cn1; test: as above; conditions: exposure time: 5 days
Method in brief: as §2

S68 BREAST
area under dose-response curve [1]: 3.32 | area under dose-response curve [2]: 2.48 | area under dose-response curve [3]: 3.58 | area under dose-response curve [4]: 2.53 | area under dose-response curve [5]: 1.85 | area under dose-response curve [6]: 1.76 | area under dose-response curve [7]: 1.03 | area under dose-response curve [8]: 2.05 | surviving fraction ([9]; 0.5 nM): 1.2 ± 0.1 | surviving fraction ([9]; 1 nM): 0.975 ± 0.046 | surviving fraction ([9]; 5 nM): 0.981 ± 0.04 | surviving fraction ([9]; 10 nM): 0.941 ± 0.11 | surviving fraction ([9]; 50 nM): 1.1 ± 0.18 | surviving fraction ([9]; 100 nM): 1.04 ± 0.097 | surviving fraction ([9]; 500 nM): 1.05 ± 0.14 | surviving fraction ([9]; 1000 nM): 1.04 ± 0.27 | surviving fraction ([10]; 0.5 nM): 0.958 ± 0.2 | surviving fraction ([10]; 1 nM): 0.976 ± 0.33 | surviving fraction ([10]; 5 nM): 0.735 ± 0.085 | surviving fraction ([10]; 10 nM): 0.809 ± 0.14 | surviving fraction ([10]; 50 nM): 0.656 ± 0.12 | surviving fraction ([10]; 100 nM): 0.907 ± 0.14 | surviving fraction ([10]; 500 nM): 0.478 ± 0.064 | surviving fraction ([10]; 1000 nM): 0.314 ± 0.055 | surviving fraction ([11]; 0.5 nM): 0.974 ± 0.2 | surviving fraction ([11]; 1 nM): 1.04 ± 0.035 | surviving fraction ([11]; 5 nM): 1.08 ± 0.11 | surviving fraction ([11]; 10 nM): 1.04 ± 0.027 | surviving fraction ([11]; 50 nM): 1.24 ± 0.076 | surviving fraction ([11]; 100 nM): 1.34 ± 0.2 | surviving fraction ([11]; 500 nM): 0.962 ± 0.21 | surviving fraction ([11]; 1000 nM): 0.949 ± 0.22 | surviving fraction ([12]; 0.5 nM): 0.642 ± 0.11 | surviving fraction ([12]; 1 nM): 0.813 ± 0.21 | surviving fraction ([12]; 5 nM): 0.748 ± 0.3 | surviving fraction ([12]; 10 nM): 0.793 ± 0.04 | surviving fraction ([12]; 50 nM): 1.04 ± 0.22 | surviving fraction ([12]; 100 nM): 1.01 ± 0.12 | surviving fraction ([12]; 500 nM): 0.636 ± 0.091 | surviving fraction ([12]; 1000 nM): 0.425 ± 0.12 | surviving fraction ([13]; 0.5 nM): 0.821 ± 0.029 | surviving fraction ([13]; 1 nM): 0.642 ± 0.021 | surviving fraction ([13]; 5 nM): 0.675 ± 0.066 | surviving fraction ([13]; 10 nM): 0.617 ± 0.094 | surviving fraction ([13]; 50 nM): 0.64 ± 0.22 | surviving fraction ([13]; 100 nM): 0.462 ± 0.039 | surviving fraction ([13]; 500 nM): 0.296 ± 0.032 | surviving fraction ([13]; 1000 nM): 0.284 ± 0.02 | surviving fraction ([14]; 0.5 nM): 0.798 ± 0.3 | surviving fraction ([14]; 1 nM): 1.09 ± 0.27 | surviving fraction ([14]; 5 nM): 0.891 ± 0.2 | surviving fraction ([14]; 10 nM): 0.913 ± 0.18 | surviving fraction ([14]; 50 nM): 0.154 ± 0.019 | surviving fraction ([14]; 100 nM): 0.128 ± 0.021 | surviving fraction ([14]; 500 nM): 0.06 ± 0.0035 | surviving fraction ([14]; 1000 nM): 0.0703 ± 0.0051 | surviving fraction ([15]; 0.5 nM): 0.884 ± 0.16 | surviving fraction ([15]; 1 nM): 0.839 ± 0.12 | surviving fraction ([15]; 5 nM): 0.343 ± 0.067 | surviving fraction ([15]; 10 nM): 0.271 ± 0.039 | surviving fraction ([15]; 50 nM): 0.166 ± 0.013 | surviving fraction ([15]; 100 nM): 0.116 ± 0.04 | surviving fraction ([15]; 500 nM): 0.0923 ± 0.022 | surviving fraction ([15]; 1000 nM): 0.067 ± 0.015 | surviving fraction ([16]; 0.5 nM): 0.693 ± 0.42 | surviving fraction ([16]; 1 nM): 1.17 ± 0.18 | surviving fraction ([16]; 5 nM): 1.02 ± 0.12 | surviving fraction ([16]; 10 nM): 0.901 ± 0.12 | surviving fraction ([16]; 50 nM): 0.42 ± 0.048 | surviving fraction ([16]; 100 nM): 0.345 ± 0.041 | surviving fraction ([16]; 500 nM): 0.135 ± 0.012 | surviving fraction ([16]; 1000 nM): 0.0897 ± 0.0071
